Patent publication US20060276498A1 (Wyeth, priority 2005, published 2006)
Structures can show the parent of a compound that is named as a salt.

How the values were obtained:
Tpl2 = Tpl2 (Homo sapiens, UniProt P41279); conditions: background statement; cited from earlier work
human Cot/Tpl2 kinase = target: T1, human Cot/Tpl2 kinase (Homo sapiens, UniProt P41279); assay: Tpl2/Cot kinase assay, GST-MEK1 phosphorylation detected by ELISA (DELFIA Eu); type: biochemical
T1 construct: human Cot/Tpl2 kinase construct encoding residues 30-398; 6His (N); made in house; host or cells: Sf9 insect cells (baculovirus system, BD Biosciences)
T1 sequence (P41279 30-398): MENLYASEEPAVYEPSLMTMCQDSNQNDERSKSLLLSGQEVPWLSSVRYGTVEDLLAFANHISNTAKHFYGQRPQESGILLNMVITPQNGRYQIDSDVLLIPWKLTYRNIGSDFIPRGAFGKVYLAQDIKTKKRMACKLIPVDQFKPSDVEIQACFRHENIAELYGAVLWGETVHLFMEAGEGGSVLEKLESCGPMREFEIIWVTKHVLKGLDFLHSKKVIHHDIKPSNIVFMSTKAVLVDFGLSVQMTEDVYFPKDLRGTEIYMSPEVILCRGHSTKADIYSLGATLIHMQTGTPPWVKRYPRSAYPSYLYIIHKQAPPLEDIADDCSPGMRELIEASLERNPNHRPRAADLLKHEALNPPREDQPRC

[1] = Table 2, additional representative compounds
[2] = Table 1, 0.4 nM Tpl2, 35 nM GST-MEK1, 50 uM ATP, 1 h at 30° C.

Tpl2, sequence (P41279 whole entry): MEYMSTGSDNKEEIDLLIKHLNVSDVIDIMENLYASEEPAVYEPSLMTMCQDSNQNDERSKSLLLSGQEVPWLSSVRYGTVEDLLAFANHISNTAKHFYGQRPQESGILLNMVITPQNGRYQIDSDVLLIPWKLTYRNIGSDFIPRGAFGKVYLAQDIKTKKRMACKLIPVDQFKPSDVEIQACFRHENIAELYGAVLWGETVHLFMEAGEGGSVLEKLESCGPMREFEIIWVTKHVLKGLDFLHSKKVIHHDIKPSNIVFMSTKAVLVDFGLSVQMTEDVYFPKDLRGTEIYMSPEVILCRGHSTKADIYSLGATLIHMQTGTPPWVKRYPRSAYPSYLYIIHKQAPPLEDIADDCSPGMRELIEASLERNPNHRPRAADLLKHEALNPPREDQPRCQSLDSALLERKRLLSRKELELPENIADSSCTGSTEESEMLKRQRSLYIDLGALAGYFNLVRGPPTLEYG

Compound	IC50 (human Cot/Tpl2 kinase; [1]) [nM]	IC50 (human Cot/Tpl2 kinase; [2]) [nM]	other results
CN[C@@H]1C[C@H]2O[C@@](C)([C@@H]1OC)n1c3ccccc3c3c4c(c5c6ccccc6n2c5c31)C(=O)NC4 [staurosporine]	–	–	inhibition of Tpl2 (Tpl2): not inhibited
CN1CCN(CCCNc2cc3c(Nc4ccc(Cc5ccccc5)cc4)c(C#N)cnc3cn2)CC1 [Example 22, 4-(4-benzylphenylamino)-6-(3-(4-methylpiperazin-1-yl)propylamino)-1,7-naphthyridine-3-carbonitrile]	–	79	–
N#Cc1cnc2cnc(NCCN3CCNCC3)cc2c1Nc1ccc(Cc2ccccc2)cc1 [Example 25, 4-(4-benzylphenylamino)-6-(2-(piperazin-1-yl)ethylamino)-1,7-naphthyridine-3-carbonitrile, hydrochloride salt]	–	38	–
CN(c1ccc(F)c(Cl)c1)c1c(C#N)cnc2cnc(NCCN3CCOCC3)cc12 [Example 89, 4-((3-chloro-4-fluorophenyl)(methyl)amino)-6-(2-morpholinoethylamino)-1,7-naphthyridine-3-carbonitrile]	–	> 40000	–
N#Cc1cnc2cnc(F)cc2c1Nc1cccc(I)c1 [Example 104, 6-fluoro-4-[(3-iodophenyl)amino]-1,7-naphthyridine-3-carbonitrile]	> 40000	–	–

The next lines start with results.

IC50 (human Cot/Tpl2 kinase; [1]) [nM]	IC50 (human Cot/Tpl2 kinase; [2]) [nM]	Compound	other results
23	–	CS(=O)(=O)c1ccc(CNc2cc3c(Nc4ccc(F)c(Cl)c4)c(C#N)cnc3cn2)cc1 [Example 125, 4-[(3-chloro-4-fluorophenyl)amino]-6-{[4-(methylsulfonyl)benzyl]amino}-1,7-naphthyridine-3-carbonitrile]	–
200	–	COc1ccc(CNc2cc3c(Nc4ccc(F)c(Cl)c4)c(C#N)cnc3cn2)cc1 [Example 96, 4-[(3-chloro-4-fluorophenyl)amino]-6-[(4-methoxybenzyl)amino]-1,7-naphthyridine-3-carbonitrile]	–
